Test results: PubChem BioAssay AID248 (DTP/NCI, 2004)
Inconclusive results and toxic doses are left out. No stated cut-off is given here; in the data, active means T/C of 150% or more; inactive means T/C below 125%.

Test system: L1210 leukemia ip in BDF1 mice, survival T/C
Experiment: NCI In Vivo Anticancer Drug Screen. Data for tumor model L1210 Leukemia (intraperitoneal) in B6D2F1 (BDF1) mice
Details: endpoint: mean survival time, higher = longer survival
Outline: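 Transplanted-tumor mice were given test agent; controls received vehicle only. Survival readings from the two groups were divided (treated over control).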

[1] = dose: 100.0 mg/kg/injection, schedule: Q04DX003 (ip), vehicle: saline
[2] = dose: 200.0 mg/kg/injection, schedule: Q04DX003 (ip), vehicle: saline
[3] = dose: 400.0 mg/kg/injection, schedule: Q04DX003 (ip), vehicle: saline
[4] = dose: 100.0 mg/kg/injection, schedule: Q01DX009 (ip), vehicle: Klucel (hydroxypropylcellulose) (HPC)
[5] = dose: 200.0 mg/kg/injection, schedule: Q01DX009 (ip), vehicle: Klucel (hydroxypropylcellulose) (HPC)
[6] = dose: 400.0 mg/kg/injection, schedule: Q01DX009 (ip), vehicle: Klucel (hydroxypropylcellulose) (HPC)
[7] = dose: 100.0 mg/kg/injection, schedule: Q04DX003 (ip), vehicle: saline with Tween-80
[8] = dose: 12.5 mg/kg/injection, schedule: Q04DX003 (ip), vehicle: saline
[9] = dose: 100.0 mg/kg/injection, schedule: Q01DX001 (ip), vehicle: other
[10] = dose: 200.0 mg/kg/injection, schedule: Q01DX001 (ip), vehicle: other
[11] = dose: 400.0 mg/kg/injection, schedule: Q01DX001 (ip), vehicle: other
[12] = dose: 100.0 mg/kg/injection, schedule: Q04DX003 (ip), vehicle: Klucel (hydroxypropylcellulose) (HPC)
[13] = dose: 200.0 mg/kg/injection, schedule: Q04DX003 (ip), vehicle: Klucel (hydroxypropylcellulose) (HPC)
[14] = dose: 400.0 mg/kg/injection, schedule: Q04DX003 (ip), vehicle: Klucel (hydroxypropylcellulose) (HPC)

Measured: T/C

[Cl][Pt+2][Cl].[NH-]C1CCCCC1.[NH-]C1CCCCC1
inactive: dose: 25.0 mg/kg/injection, schedule: Q04DX003 (ip), vehicle: saline 100 % of control | dose: 40.0 mg/kg/injection, schedule: Q04DX003 (ip), vehicle: Klucel (hydroxypropylcellulose) (HPC) 103 % of control | dose: 50.0 mg/kg/injection, schedule: Q04DX003 (ip), vehicle: saline 110 % of control | dose: 80.0 mg/kg/injection, schedule: Q04DX003 (ip), vehicle: Klucel (hydroxypropylcellulose) (HPC) 103 % of control | dose: 100.0 mg/kg/injection, schedule: Q04DX002 (ip), vehicle: saline with Tween-80 94 % of control | [1] 103 % of control | dose: 160.0 mg/kg/injection, schedule: Q04DX003 (ip), vehicle: Klucel (hydroxypropylcellulose) (HPC) 101 % of control | dose: 200.0 mg/kg/injection, schedule: Q04DX002 (ip), vehicle: saline with Tween-80 117 % of control | [2] 108 % of control | dose: 320.0 mg/kg/injection, schedule: Q04DX003 (ip), vehicle: Klucel (hydroxypropylcellulose) (HPC) 106 % of control | dose: 400.0 mg/kg/injection, schedule: Q04DX002 (ip), vehicle: saline with Tween-80 102 % of control | [3] 108 % of control | dose: 640.0 mg/kg/injection, schedule: Q04DX003 (ip), vehicle: Klucel (hydroxypropylcellulose) (HPC) 102 % of control

O=C(Nc1ccccc1C(=O)N/N=C/c1ccc(Cl)cc1Cl)c1ccccc1Cl
inactive: [4] 90 % of control | [5] 97 % of control | [6] 86 % of control

CC(CC(=O)c1ccc(F)cc1)N1CCOCC1 (stereo not given)
inactive: dose: 100.0 mg/kg/injection, schedule: Q01DX001 (ip), vehicle: saline 92 % of control | dose: 200.0 mg/kg/injection, schedule: Q01DX001 (ip), vehicle: saline 90 % of control

COC(=O)CCCCCN1C(=O)c2cccc([N+](=O)[O-])c2C1=O
inactive: dose: 100.0 mg/kg/injection, schedule: Q01DX001 (ip), vehicle: saline with Tween-80 104 % of control | dose: 200.0 mg/kg/injection, schedule: Q01DX001 (ip), vehicle: saline with Tween-80 97 % of control | dose: 400.0 mg/kg/injection, schedule: Q01DX001 (ip), vehicle: saline with Tween-80 100 % of control

CC(C)C(CN)(CCN(C)C)c1cccc2ccccc12 (stereo not given)
inactive: [7] 88 % of control

C[n+]1ccc(C#N)c2ccccc21
inactive: dose: 1.56 mg/kg/injection, schedule: Q01DX009 (ip), vehicle: saline 96 % of control | dose: 3.12 mg/kg/injection, schedule: Q01DX009 (ip), vehicle: saline 98 % of control | dose: 6.25 mg/kg/injection, schedule: Q01DX009 (ip), vehicle: saline 106 % of control | dose: 12.5 mg/kg/injection, schedule: Q01DX009 (ip), vehicle: saline 98 % of control | [8] 101 % of control

CCN(CC)CC(C)(N)c1c2ccccc2nc2c1ccc1ccccc12 (stereo not given)
inactive: dose: 50.0 mg/kg/injection, schedule: Q01DX009 (ip), vehicle: other 101 % of control | dose: 100.0 mg/kg/injection, schedule: Q01DX009 (ip), vehicle: other 111 % of control | dose: 200.0 mg/kg/injection, schedule: Q01DX009 (ip), vehicle: other 119 % of control

S=P(S)(c1ccccc1)c1ccccc1
inactive: [7] 91 % of control | dose: 200.0 mg/kg/injection, schedule: Q04DX003 (ip), vehicle: saline with Tween-80 94 % of control | dose: 400.0 mg/kg/injection, schedule: Q04DX003 (ip), vehicle: saline with Tween-80 100 % of control

O=C(NCc1ccccc1)c1ccc(C(=O)NCc2ccccc2)cc1
inactive: [9] 90 % of control | [10] 88 % of control | [11] 96 % of control

CO/N=C(/C)C1(O)Cc2c(O)c3c(c(O)c2C(OC2CC(N)C(O)C(C)O2)C1)C(=O)c1c(OC)cccc1C3=O (stereo not given)
inactive: dose: 1.0 mg/kg/injection, schedule: Q01DX009 (ip), vehicle: water 109 % of control | dose: 2.0 mg/kg/injection, schedule: Q01DX009 (ip), vehicle: water 109 % of control | dose: 2.0 mg/kg/injection, schedule: Q04DX003 (ip), vehicle: water 101 % of control | dose: 3.12 mg/kg/injection, schedule: Q01DX009 (ip), vehicle: saline with Tween-80 111 % of control | dose: 4.0 mg/kg/injection, schedule: Q01DX009 (ip), vehicle: water 108 % of control | dose: 4.0 mg/kg/injection, schedule: Q04DX003 (ip), vehicle: water 100 % of control | dose: 6.25 mg/kg/injection, schedule: Q01DX009 (ip), vehicle: saline with Tween-80 106 % of control | dose: 8.0 mg/kg/injection, schedule: Q01DX009 (ip), vehicle: water 106 % of control | dose: 8.0 mg/kg/injection, schedule: Q04DX003 (ip), vehicle: water 101 % of control | dose: 12.5 mg/kg/injection, schedule: Q01DX009 (ip), vehicle: saline with Tween-80 106 % of control | [8] 95 % of control | dose: 125.0 micrograms/kg/injection, schedule: Q04DX003 (ip), vehicle: water 100 % of control | dose: 250.0 micrograms/kg/injection, schedule: Q04DX003 (ip), vehicle: water 101 % of control | dose: 500.0 micrograms/kg/injection, schedule: Q04DX003 (ip), vehicle: water 97 % of control | dose: 1000.0 micrograms/kg/injection, schedule: Q04DX003 (ip), vehicle: water 105 % of control | dose: 2000.0 micrograms/kg/injection, schedule: Q04DX003 (ip), vehicle: water 102 % of control

O=C(CC(=O)c1ccc(Cl)cc1)NC(=O)c1ccccc1
inactive: [9] 96 % of control | [10] 91 % of control | [11] 89 % of control

Cc1cccc2c1C1c3ccccc3C(=O)CC1CC2=O (stereo not given)
inactive: [12] 98 % of control | [13] 97 % of control | [14] 93 % of control

O=C1c2cccc3cccc(c23)C(=O)N1CCN1C(=O)c2cccc3cccc(c23)C1=O
inactive: dose: 3.13 mg/kg/injection, schedule: Q01DX009 (ip), vehicle: Klucel (hydroxypropylcellulose) (HPC) 100 % of control | dose: 6.25 mg/kg/injection, schedule: Q01DX009 (ip), vehicle: Klucel (hydroxypropylcellulose) (HPC) 103 % of control | dose: 12.5 mg/kg/injection, schedule: Q01DX009 (ip), vehicle: Klucel (hydroxypropylcellulose) (HPC) 100 % of control

O=C(NC(=S)Nc1cccc(Cl)c1)c1cccc([N+](=O)[O-])c1
inactive: [4] 103 % of control | [12] 105 % of control | [5] 100 % of control | [13] 97 % of control | [6] 100 % of control | [14] 95 % of control

COc1ccc(OC)c2c(C(C)=O)c[nH]c12
inactive: dose: 12.5 mg/kg/injection, schedule: Q04DX002 (ip), vehicle: Klucel (hydroxypropylcellulose) (HPC) 118 % of control | dose: 25.0 mg/kg/injection, schedule: Q04DX002 (ip), vehicle: Klucel (hydroxypropylcellulose) (HPC) 112 % of control | dose: 50.0 mg/kg/injection, schedule: Q04DX002 (ip), vehicle: Klucel (hydroxypropylcellulose) (HPC) 93 % of control

c1ccc2c(c1)Sc1ccccc1S2
inactive: dose: 50.0 mg/kg/injection, schedule: Q01DX001 (ip), vehicle: carboxymethylcellulose (CMC) 106 % of control | dose: 100.0 mg/kg/injection, schedule: Q01DX001 (ip), vehicle: carboxymethylcellulose (CMC) 112 % of control | dose: 200.0 mg/kg/injection, schedule: Q01DX001 (ip), vehicle: carboxymethylcellulose (CMC) 101 % of control | dose: 400.0 mg/kg/injection, schedule: Q01DX001 (ip), vehicle: carboxymethylcellulose (CMC) 104 % of control

NC(=O)C(O)C(Br)(Br)Br (stereo not given)
inactive: dose: 100.0 mg/kg/injection, schedule: Q01DX009 (ip), vehicle: saline 94 % of control | [1] 97 % of control | dose: 200.0 mg/kg/injection, schedule: Q01DX009 (ip), vehicle: saline 95 % of control | [2] 93 % of control | dose: 400.0 mg/kg/injection, schedule: Q01DX009 (ip), vehicle: saline 90 % of control | [3] 97 % of control

O=C(C[N+]12CN3CN(CN(C3)C1)C2)c1ccc(Br)cc1
inactive: dose: 100.0 mg/kg/injection, schedule: Q01DX005 (ip), vehicle: Klucel (hydroxypropylcellulose) (HPC) 103 % of control | [4] 111 % of control | dose: 200.0 mg/kg/injection, schedule: Q01DX005 (ip), vehicle: Klucel (hydroxypropylcellulose) (HPC) 109 % of control | [5] 107 % of control | dose: 400.0 mg/kg/injection, schedule: Q01DX005 (ip), vehicle: Klucel (hydroxypropylcellulose) (HPC) 111 % of control
